Assays:
[1] = Binding affinity against […] adrenergic receptor
[2] = as above; remark: listed apart in the source

Row | Compound | IC50 [1] | IC50 [2]
1 | CN(C)CC1CC2c3cccnc3Cc3ccccc3N2O1 (centres undefined) | < 1000 nM | 
2 | CN(C)CC1CC2c3ccccc3Cc3ccc(Cl)cc3N2O1 (centres undefined) |  | 871 nM
3 | CN(C)CC1CC2c3ccccc3Cc3ccncc3N2O1 (centres undefined) | < 1000 nM | 
4 | CN(C)C[C@@H]1C[C@@H]2c3ccccc3Cc3ccccc3N2O1 [Dimethyl-[(2S,3aR)-1-(2,3,3a,8-tetrahydro-1-oxa-12b-aza-dibenzo[e,h]azulen-2-yl)methyl]-amine] |  | 1860 nM

Source: BindingDB's records for doi:10.1016/s0960-894x(02)00796-5 (Janssen-Cilag, 2002)
